Data from ChEMBL document CHEMBL5291721, “A preclinical secondary pharmacology resource illuminates target-adverse drug reaction associations of marketed drugs” (Nat Commun, 2023).

Columns and labels:
[1] = molecular target: D(3) dopamine receptor (Homo sapiens, UniProt P35462)
[2] = molecular target: T1, Estrogen receptor (Homo sapiens, UniProt P03372)
T1 sequence (P03372 whole entry): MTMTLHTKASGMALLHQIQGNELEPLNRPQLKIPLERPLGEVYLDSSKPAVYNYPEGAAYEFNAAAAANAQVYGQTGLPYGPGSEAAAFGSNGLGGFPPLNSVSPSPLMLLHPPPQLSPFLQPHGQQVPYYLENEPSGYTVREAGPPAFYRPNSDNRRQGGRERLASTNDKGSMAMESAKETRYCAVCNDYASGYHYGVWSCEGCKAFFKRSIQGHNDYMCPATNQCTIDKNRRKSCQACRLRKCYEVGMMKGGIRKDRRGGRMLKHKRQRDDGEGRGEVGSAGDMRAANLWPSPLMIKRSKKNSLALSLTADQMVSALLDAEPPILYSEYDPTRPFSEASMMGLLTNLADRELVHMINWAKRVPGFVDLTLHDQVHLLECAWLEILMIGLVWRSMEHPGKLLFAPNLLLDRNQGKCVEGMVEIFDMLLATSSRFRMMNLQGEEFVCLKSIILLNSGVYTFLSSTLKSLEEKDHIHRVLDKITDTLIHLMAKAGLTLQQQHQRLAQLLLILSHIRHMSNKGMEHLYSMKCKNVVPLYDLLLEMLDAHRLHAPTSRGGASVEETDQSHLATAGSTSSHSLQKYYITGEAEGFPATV

[3] = molecular target: T2, Mu-type opioid receptor (Homo sapiens, UniProt P35372)
T2 sequence (P35372 whole entry): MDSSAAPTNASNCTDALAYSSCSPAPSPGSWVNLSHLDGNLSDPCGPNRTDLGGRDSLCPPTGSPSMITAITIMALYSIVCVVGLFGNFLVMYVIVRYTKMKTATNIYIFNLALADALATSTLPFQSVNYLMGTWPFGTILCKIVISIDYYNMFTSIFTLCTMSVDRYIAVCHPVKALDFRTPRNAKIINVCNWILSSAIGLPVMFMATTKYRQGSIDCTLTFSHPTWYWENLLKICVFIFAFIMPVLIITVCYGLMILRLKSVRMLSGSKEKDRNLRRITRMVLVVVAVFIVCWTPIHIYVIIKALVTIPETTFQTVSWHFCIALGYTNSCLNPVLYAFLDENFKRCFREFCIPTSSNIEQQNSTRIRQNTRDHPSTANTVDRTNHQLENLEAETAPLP

[4] = molecular target: T3, Adenosine receptor A3 (Homo sapiens, UniProt P0DMS8)
T3 sequence (P0DMS8 whole entry): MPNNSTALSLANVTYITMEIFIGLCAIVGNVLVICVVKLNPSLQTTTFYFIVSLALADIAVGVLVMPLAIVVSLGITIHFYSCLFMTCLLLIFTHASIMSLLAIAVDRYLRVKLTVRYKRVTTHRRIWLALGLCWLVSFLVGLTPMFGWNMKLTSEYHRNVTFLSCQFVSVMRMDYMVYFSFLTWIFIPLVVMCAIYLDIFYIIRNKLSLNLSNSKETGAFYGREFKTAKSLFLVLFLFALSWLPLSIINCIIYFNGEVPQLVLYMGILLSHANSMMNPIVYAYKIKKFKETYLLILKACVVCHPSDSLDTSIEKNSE

[5] = molecular target: T4, Alpha-1A adrenergic receptor (Homo sapiens, UniProt P35348); assay type: functional, cell-based
T4 sequence (P35348 whole entry): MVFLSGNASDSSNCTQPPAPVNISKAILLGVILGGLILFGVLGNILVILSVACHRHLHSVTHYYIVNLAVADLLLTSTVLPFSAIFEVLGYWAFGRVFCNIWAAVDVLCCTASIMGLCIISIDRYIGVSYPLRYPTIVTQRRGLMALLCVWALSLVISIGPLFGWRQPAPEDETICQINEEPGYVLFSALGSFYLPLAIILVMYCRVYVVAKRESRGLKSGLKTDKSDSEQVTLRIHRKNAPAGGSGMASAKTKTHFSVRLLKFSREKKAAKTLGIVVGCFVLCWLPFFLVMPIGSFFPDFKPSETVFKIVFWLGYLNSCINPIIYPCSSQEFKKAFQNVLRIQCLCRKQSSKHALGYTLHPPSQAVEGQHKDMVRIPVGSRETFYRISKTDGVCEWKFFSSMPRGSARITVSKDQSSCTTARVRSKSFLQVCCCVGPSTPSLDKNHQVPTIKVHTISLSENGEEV

[6] = molecular target: T5, Cannabinoid receptor 1 (Homo sapiens, UniProt P21554); assay type: functional, cell-based
T5 sequence (P21554 whole entry): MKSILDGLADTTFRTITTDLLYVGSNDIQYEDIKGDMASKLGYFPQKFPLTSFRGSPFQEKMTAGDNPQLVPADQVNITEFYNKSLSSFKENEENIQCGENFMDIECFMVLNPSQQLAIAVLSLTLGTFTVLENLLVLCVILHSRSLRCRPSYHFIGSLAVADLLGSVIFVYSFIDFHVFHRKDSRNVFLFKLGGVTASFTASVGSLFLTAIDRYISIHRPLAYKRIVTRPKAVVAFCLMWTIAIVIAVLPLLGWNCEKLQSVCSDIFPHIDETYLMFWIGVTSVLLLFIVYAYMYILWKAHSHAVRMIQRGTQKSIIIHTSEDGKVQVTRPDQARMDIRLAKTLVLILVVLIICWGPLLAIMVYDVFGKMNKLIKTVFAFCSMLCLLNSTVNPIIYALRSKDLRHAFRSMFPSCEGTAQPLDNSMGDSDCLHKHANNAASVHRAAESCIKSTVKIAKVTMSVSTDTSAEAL

[7] = molecular target: T2, Mu-type opioid receptor; test: biochemical; assay type: functional
[8] = molecular target: T5, Cannabinoid receptor 1; assay type: functional, cell-based; remark: listed apart in the source
[9] = molecular target: T6, Alpha-2C adrenergic receptor (Homo sapiens, UniProt P18825); assay type: functional
T6 sequence (P18825 whole entry): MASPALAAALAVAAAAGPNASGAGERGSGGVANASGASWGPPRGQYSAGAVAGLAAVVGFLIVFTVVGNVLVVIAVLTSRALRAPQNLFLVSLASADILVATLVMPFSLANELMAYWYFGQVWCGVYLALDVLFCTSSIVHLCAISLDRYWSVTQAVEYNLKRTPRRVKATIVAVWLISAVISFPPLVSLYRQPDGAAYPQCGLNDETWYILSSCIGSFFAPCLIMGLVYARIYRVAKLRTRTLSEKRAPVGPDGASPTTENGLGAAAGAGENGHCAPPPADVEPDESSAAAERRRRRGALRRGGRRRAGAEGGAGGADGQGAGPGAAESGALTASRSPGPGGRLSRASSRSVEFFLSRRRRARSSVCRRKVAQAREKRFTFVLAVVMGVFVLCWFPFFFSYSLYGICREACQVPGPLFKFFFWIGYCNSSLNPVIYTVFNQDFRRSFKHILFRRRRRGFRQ

[10] = molecular target: T7, 5-hydroxytryptamine receptor 2B (Homo sapiens, UniProt P41595); assay type: functional, cell-based
T7 sequence (P41595 whole entry): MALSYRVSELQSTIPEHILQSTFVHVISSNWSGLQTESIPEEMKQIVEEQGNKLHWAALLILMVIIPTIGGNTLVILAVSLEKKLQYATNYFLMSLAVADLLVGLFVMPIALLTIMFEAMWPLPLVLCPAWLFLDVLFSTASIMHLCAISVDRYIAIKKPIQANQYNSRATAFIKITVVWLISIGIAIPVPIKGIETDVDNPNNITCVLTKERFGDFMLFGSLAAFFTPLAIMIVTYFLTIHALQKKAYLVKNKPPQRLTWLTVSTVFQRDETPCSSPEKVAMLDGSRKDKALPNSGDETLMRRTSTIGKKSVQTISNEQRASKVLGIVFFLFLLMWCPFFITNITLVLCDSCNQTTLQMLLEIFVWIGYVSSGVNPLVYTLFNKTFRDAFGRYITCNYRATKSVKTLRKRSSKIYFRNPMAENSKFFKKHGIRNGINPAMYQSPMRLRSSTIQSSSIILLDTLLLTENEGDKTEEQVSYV

[11] = molecular target: T1, Estrogen receptor; remark: listed apart in the source
[12] = molecular target: Melanocortin receptor 3 (Homo sapiens, UniProt P41968)
Melanocortin receptor 3, sequence (P41968 whole entry): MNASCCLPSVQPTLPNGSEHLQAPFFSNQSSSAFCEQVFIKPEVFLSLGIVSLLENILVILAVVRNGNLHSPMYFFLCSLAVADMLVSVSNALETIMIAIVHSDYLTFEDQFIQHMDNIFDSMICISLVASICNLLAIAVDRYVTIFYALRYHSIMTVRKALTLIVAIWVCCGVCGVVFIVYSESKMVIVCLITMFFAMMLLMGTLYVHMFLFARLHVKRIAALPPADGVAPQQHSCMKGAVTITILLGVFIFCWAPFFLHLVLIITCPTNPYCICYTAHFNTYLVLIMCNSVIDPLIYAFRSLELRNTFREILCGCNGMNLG

[13] = molecular target: T7, 5-hydroxytryptamine receptor 2B; assay type: functional, cell-based; remark: listed apart in the source

Measured: AC50
Note: assay procedure not described here.

D(3) dopamine receptor, sequence (P35462 whole entry): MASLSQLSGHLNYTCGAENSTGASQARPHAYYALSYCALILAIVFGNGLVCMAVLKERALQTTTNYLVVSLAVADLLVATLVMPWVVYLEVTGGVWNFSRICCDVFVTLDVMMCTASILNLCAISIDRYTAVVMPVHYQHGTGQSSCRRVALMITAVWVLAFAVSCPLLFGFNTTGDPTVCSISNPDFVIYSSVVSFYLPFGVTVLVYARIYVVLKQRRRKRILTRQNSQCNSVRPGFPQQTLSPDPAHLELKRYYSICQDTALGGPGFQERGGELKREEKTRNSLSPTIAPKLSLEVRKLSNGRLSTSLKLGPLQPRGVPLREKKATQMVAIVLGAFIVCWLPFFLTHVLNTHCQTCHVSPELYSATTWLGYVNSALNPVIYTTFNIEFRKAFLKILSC

Cc1oc(=O)oc1COC(=O)[C@@H]1N2C(=O)[C@@H](NC(=O)[C@H](N)c3ccccc3)[C@H]2SC1(C)C [LENAMPICILLIN]
> 30 µM: [1] | [2] | [3] | [4] | [5]

c1ccc2c(SC3=NCCN3)c[nH]c2c1 [TINAZOLINE]
> 30 µM: [1] | [2] | [3] | [4]
0.003 µM: [5]

CC(OCCN1CCCCCC1)(c1ccccc1)c1ccc(Cl)cc1 (centres undefined) [SETASTINE]
> 30 µM: [2] | [4]
3.66 µM: [3]
28.1 µM: [5]
0.432 µM: [1]

NC(=O)[C@@H]1CC[C@@H]2CN1C(=O)N2OS(=O)(=O)O [AVIBACTAM]
> 30 µM: [1] | [2] | [3] | [4] | [5]

NC[C@H]1CC[C@H](C(=O)Oc2ccc(CCC(=O)O)cc2)CC1 [CETRAXATE]
not listed: [4] | [5] | [11] | [12] | [13]
> 30 µM: all other assays above

CC(=O)OC[C@H]1O[C@@H](n2ncc(=O)[nH]c2=O)[C@H](OC(C)=O)[C@@H]1OC(C)=O [AZARIBINE]
> 30 µM: [1] | [2] | [3] | [4] | [5]

CCCSc1nc(N[C@@H]2C[C@H]2c2ccc(F)c(F)c2)c2nnn([C@@H]3C[C@H](OCCO)[C@@H](O)[C@H]3O)c2n1 [TICAGRELOR]
20.5 µM: [1]
0.106 µM: [4]
> 30 µM: [2] | [3] | [5]

C[C@H](N[C@@H](CCc1ccccc1)C(=O)O)C(=O)N1Cc2ccccc2C[C@H]1C(=O)O
> 30 µM: [1] | [2] | [3] | [4] | [5]

N#Cc1ccc(Oc2ccc3c(c2)COB3O)cc1 [CRISABOROLE]
> 30 µM: [1] | [2] | [3] | [4] | [5]

CC(COc1ccccc1)NC(C)C(O)c1ccc(O)cc1 (centres undefined) [ISOXSUPRINE]
8.69 µM: [3]
> 30 µM: [2] | [4] | [5]
0.037 µM: [1]

CC[N+](C)(CC)CCOC(=O)C(O)(c1ccccc1)C1CCCCC1 (centres undefined) [OXYPHENONIUM]
> 30 µM: [1] | [2] | [3] | [4] | [5]

C[C@@H]1C[C@H]2[C@@H]3C[C@H](F)C4=CC(=O)C=C[C@]4(C)[C@H]3[C@@H](O)C[C@]2(C)[C@@]1(O)C(=O)CO [PARAMETHASONE]
> 30 µM: [1] | [2] | [3] | [4] | [5]

COc1ccc(OC)c(C(O)C(C)N)c1 (centres undefined) [METHOXAMINE]
0.021 µM: [5]
> 30 µM: [1] | [2] | [3] | [4]

CCC[C@H](N[C@@H](C)C(=O)N1[C@H](C(=O)O)C[C@@H]2CCCC[C@@H]21)C(=O)OCC [PERINDOPRIL]
> 30 µM: [1] | [2] | [3] | [4] | [5]

Clc1ccc(C(Cn2ccnc2)OCc2csc3c(Cl)cccc23)c(Cl)c1 (centres undefined) [SERTACONAZOLE]
1.63 µM: [4]
24.3 µM: [5]
> 30 µM: [2]
1.78 µM: [1]
3.59 µM: [3]

CC1(C)S[C@@H]2[C@H](/N=C/N3CCCCCC3)C(=O)N2[C@H]1C(=O)O [AMDINOCILLIN]
> 30 µM: [1] | [2] | [3] | [4] | [5]

CC1(CCN2CCCCC2)C(=O)CCc2ccccc21 (centres undefined) [NEPINALONE]
> 30 µM: [1] | [2] | [3] | [4] | [5]

C=C1CC[C@H](O)C/C1=C/C=C1\CCC[C@]2(C)[C@@H]([C@H](C)CCCC(C)C)CC[C@@H]12 [CHOLECALCIFEROL]
14.8 µM: [4]
> 30 µM: [2] | [3] | [5]
15.6 µM: [1]

O=S1(=O)CCN(CN2CCS(=O)(=O)NC2)CN1 [TAUROLIDINE]
not listed: [4] | [5] | [10]
> 30 µM: all other assays above

CC(C)(C)NC(=O)N[C@H](C(=O)N1C[C@H]2[C@@H]([C@H]1C(=O)NC(CC1CCC1)C(=O)C(N)=O)C2(C)C)C(C)(C)C (some centres undefined) [BOCEPREVIR]
> 30 µM: [1] | [2] | [3] | [4] | [5]

Cc1ncc2c(c1O)COC2c1ccc(Cl)cc1 (centres undefined) [CICLETANINE]
> 30 µM: [1] | [2] | [3] | [4] | [5]

Cc1ccc(S(=O)(=O)NC(=O)NC2CCCCC2)cc1 [GLYCYCLAMIDE]
12.7 µM: [4]
> 30 µM: [1] | [2] | [3] | [5]

CC(=O)O[C@H]1Cc2ccccc2N(C(N)=O)c2ccccc21 [ESLICARBAZEPINE ACETATE]
> 30 µM: [1] | [2] | [3] | [4] | [5]

COC(=O)C[C@](O)(CCCC(C)(C)O)C(=O)O[C@@H]1C(OC)=C[C@]23CCCN2CCc2cc4c(cc2[C@H]13)OCO4 [OMACETAXINE MEPESUCCINATE]
> 30 µM: [1] | [2] | [3] | [5]

CCCn1cnc2c1c(=O)n(CCCCC(C)=O)c(=O)n2C [PROPENTOFYLLINE]
> 30 µM: [1] | [3] | [4] | [5]
28.9 µM: [2]

Cc1ccc(C(=O)C(C)CN2CCCCC2)cc1 (centres undefined) [TOLPERISONE]
2.52 µM: [1]
> 30 µM: [2] | [3] | [4] | [5]

C[C@H](CCC(=O)O)[C@H]1CC[C@H]2[C@@H]3[C@H](O)C[C@@H]4C[C@H](O)CC[C@]4(C)[C@H]3C[C@H](O)[C@]12C [CHOLIC ACID]
> 30 µM: [2] | [4] | [5]

O=C(O)[C@@H]1C[C@@H](O)CN1
> 10 µM: [3]
> 30 µM: [2] | [4] | [5]

NNCCc1ccccc1 [PHENELZINE]
11.5 µM: [5]
> 30 µM: [1] | [2] | [3] | [4]
